Measured values: US8722674B2, “1,3,5-triazine-2,4,6-triamine compound or pharmaceutical acceptable salt thereof, and pharmaceutical composition comprising the same” (Hanall Biopharma Co., Ltd., priority 2007, dated 2014)

Experiments:
C2C12 cells = test: Measurement of glucose absorption (3H-deoxy-glucose); format: cell-based; conditions: for activity at 100 µM: Mus musculus, differentiated C2C12 muscle cells, with 1 μM insulin 24 h, higher is better, read-out: glucose absorption, % control; for effect of reducing insulin resistance, times better than the control group: absorption effect divided by average percent of control group (metformin 2 mM), multiplied by 20
Description: (§1) Metformin that is widely used in type 2 diabetic patients inhibits the formation of glucose, the synthesis of cholesterol and triglyceride in liver cells and promote the absorption of glucose from blood vessels in the muscle cells. […] In the case of the ability to form cholesterol, triglyceride and glucose, the lower the numerical value, the better the effect. Numerical values for a control group become reference values.
As a muscle cell model, C2C12 cells were induced to differentiate into muscle cells in 2% bovine fetal serum for 6 days. The C2C12 cells which differentiated into muscle cells were treated with each of the compounds in serum-free low glucose media, and then cultured with 1 μM of insulin for 24 hours. After cultivation, the cells were treated with 1 μCi 3H-deoxy-glucose and 10 μM deoxy-glucose at 37° C. for 15 minutes. After treatment, the media were removed, and the cells were washed twice with PBS. The washed cells were treated with 0.1 N NaOH and neutralized with 1N HCl. The amount of glucose absorbed into the cells was measured with a liquid scintillation counter. The effect of the compounds was determined by selecting a compound showing an absorption effect of at least 200%, dividing the absorption effect by the average percent of the control group, and then multiplying the divided value by […]. A higher measurement value means a stronger ability to reduce insulin resistance.

HepG2 cells [1] = test: Measurement of cholesterol synthesis ability (Amplex red fluorescence); format: cell-based; conditions: Homo sapiens; 100 uM, HepG2 cells, 24 h treatment; lower is better; read-out: cholesterol synthesis ability, % control
Description: as §1
(§2) As a hepatic cell model, HepG2 cells were used to measure cholesterol synthesis inhibitory ability, which is the important function of AMPK. The hepatic cell model HepG2 cells were cultured in 1% serum-containing media for 24 hours, and then treated with each of the compounds for 24 hours. Then, the cells were disrupted with lysis buffer (0.1 M potassium phosphate, pH 7.4, 0.05 M NaCl, 5 mM cholic acid, 0.1% Triton X-100). To the disrupted cells, the same volume of a reaction solution (2 U/ml cholesterol oxidizing agent, 2 U/ml peroxidase, 0.2 U/ml cholesterol esterase, and 300 μM Amplex red as a fluorescent factor) was added and allowed to react at 37° C. for 30 minutes. After completion of the reaction, the cells were measured with a fluorometer at a wavelength of 560/590 nm (ex/em), thus quantifying the amount of […] formed in the cells. A lower measurement value means an increased lipid production inhibitory ability.

HepG2 cells [2] = test: Measurement of gluconeogenesis (14C-lactate); format: cell-based; conditions: Homo sapiens, 100 uM, 24 h treatment, lower is better, read-out: gluconeogenesis (glucose synthesis ability), % control
Protocol: as §1
As a hepatic cell model, HepG2 cells were cultured in 10% serum-containing high glucose media, and then treated with each of the compounds for 24 hours. Then, the cells were treated with 0.5 uCi 14C-lactate and 10 mM L-lactate, and cultured for 4 hours. After cultivation, the media of the cells were removed, and the cells were washed with PBS, treated with 0.1N NaOH and left to stand at room temperature for 1 hour. Then, the cells were neutralized with 1N HCl, and the amount of glucose formed in the cells was measured with a liquid scintillation counter. […] A lower measurement value means a stronger blood glucose lowering activity.

HepG2 cells [3] = test: Measurement of triglyceride (Amplex red fluorescence); format: cell-based; conditions: Homo sapiens, 100 uM, 24 h treatment, lower is better, read-out: triglyceride synthesis ability, % control
Protocol: as §1
as §2, with “model,” for “model, HepG2 cells were used to measure cholesterol synthesis inhibitory ability, which is the important function of AMPK. The hepatic cell model”, “(0.1M” for “(0.1 M”, “(0.76” for “(2”, “glycerol kinase, […] peroxidase, 22.2 U/ml glycerol” for “cholesterol”, “agent,” for “agent, 2 U/ml peroxidase, 0.2 U/ml cholesterol esterase,”

## CN(C)c1nc(N)nc(N2CCN(c3ccccc3)CC2)n1 [Example 39, N2,N2-dimethyl-6-(4-phenylpiperazin-1-yl)-1,3,5-triazine-2,4-diamine]
C2C12 cells
  activity at 100 µM: 115%
HepG2 cells [1]
  activity at 100 µM: 55.8%
other
  melting point: 132 to 139 °C
HepG2 cells [2]
  activity at 100 µM: 77.4%
HepG2 cells [3]
  activity at 100 µM: 95.3%

## CN(C)c1nc(N)nc(N2CCN(c3ccc([N+](=O)[O-])cc3)CC2)n1 [Example 40, N2,N2-dimethyl-6-(4-(4-nitrophenyl)piperazin-1-yl)-1,3,5-triazine-2,4-diamine]
C2C12 cells
  activity at 100 µM: 245%
  effect of reducing insulin resistance, times better than the control group: about 14 times
HepG2 cells [1]
  activity at 100 µM: 62.2%
other
  melting point: 173 to 182 °C
HepG2 cells [2]
  activity at 100 µM: 39.8%
HepG2 cells [3]
  activity at 100 µM: 110%

## CN(C)c1nc(N)nc(NC2CCCCC2)n1 [Example 41, N2-cyclohexyl-N4,N4-dimethyl-1,3,5-triazine-2,4,6-triamine]
C2C12 cells
  activity at 100 µM: 263%
  effect of reducing insulin resistance, times better than the control group: about 16 times
HepG2 cells [1]
  activity at 100 µM: 70.8%
other
  melting point: 119 to 120 °C
HepG2 cells [2]
  activity at 100 µM: 90.6%
HepG2 cells [3]
  activity at 100 µM: 90.9%

## CN(C)c1nc(N)nc(Nc2ccccc2O)n1 [Example 43, 2-(4-amino-6-(dimethylamino)-1,3,5-triazine-2-ylamino)phenol]
C2C12 cells
  activity at 100 µM: 186%
HepG2 cells [1]
  activity at 100 µM: 41.1%
other
  melting point: 307 to 312 °C
HepG2 cells [2]
  activity at 100 µM: 83.5%
HepG2 cells [3]
  activity at 100 µM: 77%
